Read-outs that look alike come from different tables or passages of the source.
Key:
RL95-2 monolayers [1] = tested on: RL95-2 monolayers
RL95-2 monolayers [2] = tested on: RL95-2 monolayers; remark: listed apart in the source
Procedure: The modification of monolayers of the cell line RL95-2 (established from a human endometrial adenocarcinoma (ATCC HTB CRL 1671)) in serum-free and serum-containing media was evaluated.
D-MEM/F12 (Gibco 11320-033, Invitrogen NZ) containing 1% penicillin/streptomycin (Gibco 15140-122, Invitrogen NZ) was used as a serum-free medium. D-MEM/F12 10% FBS (Gibco 10091-130, Invitrogen NZ) containing 1% penicillin/streptomycin and […] insulin (Gibco 12585-014, Invitrogen NZ) was used as a serum-containing medium.
A suspension of the cell line RL95-2 was diluted in pre-warmed serum-containing media to the required concentration e.g. 4×10^5 cells/mL. A 25 μL volume of the suspension was used to seed the required wells in a Terasaki tray so that each treatment was performed in duplicate. The plates were incubated overnight in a 5% CO2, 37° C. incubator until the monolayer was approximately 60% confluent.
Trays were incubated at 37° C., 5% CO2 for 120 min.
The cells were then washed and a 12 μl volume of a 0.1 mg/mL solution of Avidin Alexa Fluor® 488 added. The cells were then incubated at room temperature for a further 30 minutes in the dark.
The monolayers were finally washed 3 times with PBS, the trays inverted and photographed using an Olympus BX51 fluorescent microscope at 200× magnification, exposure time 475 ms (FIG. 12).

RL95-2 cells = details: for Mean Fluorescence: T = 24 hr, Serum-containing
red blood cells = assay: Avidin-Alexafluor fluorescence of RBCs modified with biotin-lipid construct; format: cell-based; design: key: 0 (no fluorescence observed); 4 (maximum fluorescence observed); details: for fluorescence score (Avidin-AF), RBCs: Day 0
Procedure: A stock solution of Avidin-Alexafluor (Avidin-AF) was prepared in sterile phosphate buffered saline (PBS) at a concentration of 2 mg/mL. A stock solution of biotinylated gangliocide (BioG) was prepared in sterile PBS at a concentration of 5 mg/mL.
Incubations were performed in a plastic ependorf tube of nominal volume 1.5 mL for 2 hours at 37° C. in a water bath. O group RBCs were incubated with a solution of BioG at a concentration of 0.33 mg/mL as a positive control.
Incubated RBCs were washed 3 times with PBS in a mini centrifuge. Fluorescent labeling of the washed, modified RBCs was performed by adding 10 μL of a solution of Avidin-AF at a concentration of 0.1 mg/mL. The RBCs were then incubated in the dark for 1 hour at 37° C. in a water bath and washed 3 times with PBS.
85% solution of the washed, fluorescent labeled RBCs were viewed on a slide with cover slip under a fluorescent microscope at 488 nm and photographic exposure of 1.903 (FIG. 6). The intensity of the fluorescent signal was recorded using a scoring system of 0 (no fluorescence observed) to 4 (maximum fluorescence observed).
Retention of the construct by the RBCs was assessed by incubation with Avidin-AF as before.

group 0 RBCs = details: construct 0.5 mg/ml
Procedure: Unmodified group A RBCs were used as a second population of cells.
Both populations of cells were incubated for 37° C. for 2 hrs in a water bath and then washed 2× in PBS and 1× in Celpresol using an Immufuge II (low, 1 min). The concentration of cells in each suspension was made up to 2% by adding 1.5 mL.
The suspensions of RBCs were mixed with avidinylated magnetic Dynabeads at an approximate ratio of RBC:bead of 1 and incubated for 10 min at room temperature on a gyrator. Samples of the first and second populations of RBCs were then mixed in equal volumes (35 μl each) in an ependorf tube for two minutes.
The contents of the ependorf were transferred to the well of a 96-well plate and a magnet was applied to the underside of the well for 1 minute. The supernatant was carefully removed with the magnet applied and without disruption of the beads. The blood grouping of the cells of the supernatants were then assessed by applying 30 μl of supernatant and 30 μl anti-A antibody to a Dynamed™ gel card. Cards were spun for 10 min in a centrifuge.

A group red blood cells = details: construct 1 mg/mL, 37° C. 2 hours; wells washed 3× with PBS
Procedure: A volume of 60 μL washed A group red blood cells (RBCs) was modified by incubation with 20 μL of the dilution of the construct at 37° C. for 2 hours.
The modified RBCs were washed twice in PBS and once in Celpresol™ as described above. A 2% cell suspension of washed cells (modified or control) was prepared in Celpresol™ and cell concentration (150×10^6/mL) determined using a haemocytometer. Similarly the concentration of a suspension streptavidin beads (134×10^6/mL) was determined.
A volume of 50 μL of a suspension of RBCs was added to provide a bead to RBC ratio of c. 1:1 and incubated at room temperature for 1 hour to allow RBCs to settle.
The wells were washed 3× with PBS, aspirating the washing solution with a pipette.

murine embryos = assay: Avidin-Alexafluor fluorescence of murine embryos modified with biotin-lipid construct; format: cell-based
Procedure: Murine embryos (morula/early blastocyst stage, 3.5 day) were incubated in 50 microlitre microdrops in Blastassist™ culture media.
The zona pellucida of the embryos was removed by treatment with 0.5% pronase (4 minute incubation) and washing 3 times in embryo handling media prior to introduction into the microdrops. Each microdrop was equilibrated 5% CO2 at 37° C. overnight prior to introduction of the embryos.
Microdrops containing embryos and BioG were incubated for 40 minutes in 5% CO2 at 37° C.
Following incubation each group of embryos was washed 3 times in handling media and transferred to 50 microlitre microdrops containing 2 mg/ml, Avidin-AF microdrops for fluorescent labelling. The microdrops containing transferred embryos were incubated at 37° C. for 30 minutes in the dark.
Each group of embryos was then washed 3 times in handling media and mounted on a glass microscope slide for viewing. Embryos were viewed under a fluorescent microscope at 488 nm. The intensity of the fluorescence was recorded using a scoring system of 0 (no fluorescence) to 4 (maximum fluorescence).

spermatozoa = tested on: spermatozoa
Procedure: Spermatozoa were washed and isolated by layering 1.1 mL of fresh semen over a gradient of SpermGrad 125 (Vitrolife 10099; 2 mL of 40% solution over 2 mL of 80% solution in a 15 mL round bottom tube) and centrifuging at 500×g for 20 min.
The bottom layer of the gradient (c. 0.7 mL was transferred to 4 mL round bottom tubes and c. 2 mL flushing (handling) media (Medicult 10840125A) added. The tube was centrifuged at 300×g for 10 min and the spermatozoa washed two more times (mixing by tube inversion).
Samples of washed spermatozoa were incubated overnight at 37° C. in a 5% CO2 atmosphere.
Open tubes were incubated at 37° C. in a 5% CO2 atmosphere prior to addition of c. 70 μL spermatozoa (c. 25×10^6/mL) to each tube and incubation for 120 min (A), 60 min (B), 30 min (C), 10 min […] and 120 min (E).
Following incubation a couple of drops of flushing media were added and the tubes centrifuged at 300×g for 5 min. The spermatozoa were washed two more times with flushing media and before being re-suspended in culture media to a final volume of 100 μL.
Streptavidin beads at a concentration of c. 6.25×10^6/100 μL were diluted 35 times in BSA plus flushing media to provide a ratio of 0.1 beads/spermatozoa when mixed in equal volume with a diluted suspension of the modified spermatozoa.
A volume of 5 μL of a diluted suspension of the modified spermatozoa was mixed on a slide with 5 μL of a diluted suspension of streptavidin beads and covered with a coverslip.
The mixture was observed under a microscope at 400× magnification.
The assessment of the attachment of streptavidin beads to modified spermatozoa is recorded in Table 27.

## Biotin-CMG(2)-Ad-DOPE
RL95-2 monolayers [1]; incubated at 4° C.
  internalisation of Avidin Alexa Fluor 488 fluorescence: No internalization was observed
RL95-2 monolayers [1]; incubated at 37° C.
  internalisation of Avidin Alexa Fluor 488 fluorescence: fluorescence starts to internalize within 4 hr
RL95-2 monolayers [2]; 100 μg/mL, insertion time 30
  Mean Fluorescence: 3
RL95-2 monolayers [2]; construct 20, 100 and 500 μg/mL
  fluorescence of RL95-2 cell membrane, serum-free media: homogenous intense fluorescent signal
RL95-2 monolayers [2]; same concentrations (20, 100 and 500 μg/mL)
  fluorescence of RL95-2 cell membrane, serum-containing media: weakened fluorescence
RL95-2 monolayers [2]; serum-free media
  intensity of fluorescence versus insertion time: increased with increasing insertion time
RL95-2 cells; 20 μg/mL
  Mean Fluorescence: 0
RL95-2 cells; 100 μg/mL
  Mean Fluorescence: 0
RL95-2 cells; RL95-2 cells, reduced from T=0
  fluorescence 24 hr post-insertion, serum-free media: Fluorescence was detected
Red blood cells; dilution 0.001 mg/ml
  fluorescence score (Avidin-AF), RBCs: 0
Red blood cells; dilution 0.01 mg/ml
  fluorescence score (Avidin-AF), RBCs: 1
Red blood cells; dilution 0.1 mg/ml
  fluorescence score (Avidin-AF), RBCs: 2
Red blood cells; dilution 1 mg/ml
  fluorescence score (Avidin-AF), RBCs: 4
Red blood cells; dilution 1 mg/ml, Day 14 of storage
  fluorescence score (Avidin-AF), RBCs, retention: 4
Group 0 RBCs
  retention of modified group 0 RBCs by the magnet from mixture with unmodified group A RBCs: Retention of the 0 group RBCs by the magnet was demonstrated
A group red blood cells
  retention of modified RBCs by streptavidin beads on magnet after washing: retained
Murine embryos; 0.1 mg/mL, n = 21
  fluorescence score (Avidin-AF), murine embryos: 2
Murine embryos; 1 mg/mL, n = 19
  fluorescence score (Avidin-AF), murine embryos: 1
Murine embryos; 2 mg/mL, n = 19
  fluorescence score (Avidin-AF), murine embryos: 1
spermatozoa; treatment A, incubation time 120 min, 30 min, with cross-linking
  Number of beads attached to spermatozoa: 10-15 (with
spermatozoa; treatment A, incubation time 120 min, Immediate
  Number of beads attached to spermatozoa: 10-12
spermatozoa; treatment B, incubation time 460 min, 30 min
  Number of beads attached to spermatozoa: 8
spermatozoa; treatment C, incubation time 30 min, 30 min
  Number of beads attached to spermatozoa: 3
spermatozoa; treatment C, incubation time 30 min, Immediate
  Number of beads attached to spermatozoa: 1-3
spermatozoa; treatment D, incubation time 10 min, 30 min
  Number of beads attached to spermatozoa: 1
spermatozoa; treatment D, incubation time 10 min, Immediate
  Number of beads attached to spermatozoa: 1

— patent US10919941B2, “Functional lipid constructs” (KODE BIOTECH LIMITED, priority 2007, dated 2021)
